Values quoted from earlier work in patent US20150290251A1, “USE OF EGGSHELL MEMBRANE FORMULATIONS TO ALLEVIATE JOINT PAIN” (U.S. NUTRACEUTICALS, LLC d/b/a Valensa International, priority 2009, published 2015).

Assays:
[1] = tested on: C-Reactive Protein (CRP); details: human subjects with high risk levels of CRP; three months of treatment
[2] = tested on: NO, PGE-2 and TNF-Alpha; details: induced uveitis; suppression of NO, PGE-2 and TNF-Alpha by directly blocking NO synthase activity
[3] = compared with alpha-tocopherol
[4] = tested on: lens epithelial cells; details: in vitro lens epithelial cells; umol/L concentrations
[5] = tested on: cellular membrane lipid peroxidation
[6] = human trials; 4 mgs/day; compared to untreated subjects

Q: With CC1=C(/C=C/C(C)=C/C=C/C(C)=C/C=C/C=C(C)/C=C/C=C(C)/C=C/C2=C(C)C(=O)C(O)CC2(C)C)C(C)(C)CC(O)C1=O (stereo not drawn) [Astaxanthin, 3,3′-dihydroxy-β, β-carotene-4, 4′dione] as the compound, how does the “patients whose serum CRP levels dropped below the risk level” value [1] read?
A: The value was 43 % of patients.

Q: What about the ocular anti-inflammatory activity [2] of the same compound?
A: The ocular anti-inflammatory activity was “dose dependent ocular anti-inflammatory activity”.

Q: What about the “ability to quench singlet oxygen relative to alpha-tocopherol” value [3] of the same compound?
A: The value was “over five hundred times”.

Q: And the “suppression of UVB induced lipid peroxidative mediated cell damage” value [4]?
A: Its value is “dramatically suppresses”.

Q: And the “effect on pro-oxidant activity of Vioxx” value [5]?
A: The value was “completely negates”.

Q: And the “prevention of joint pain following strenuous knee exercise” value [6]?
A: The value was “completely prevented”.
